In patent US8187821B2, “Compositions and methods for the modulation of PGRMC1” (University of Utah Research Foundation, priority 2008, dated 2012):

Columns and labels:
His10-PGRMC1 [1] = biological target: T1, His10-PGRMC1 (Homo sapiens, UniProt O00264); assay: Competition of cold competitors with [^3H] progesterone or [^3H] cholesterol for His10-PGRMC1 binding; conditions: for effect of cold competitor on binding of [^3H] cholesterol: competitor at ten-fold higher concentration; for effect of cold competitor on specific binding of [^3H] progesterone: excess cold competitor (10 or 100-fold), FIG. 9
T1 construct: a product containing the full length coding region of PGMRC1 flanked by Nde1 and BamHI restriction sites; made in house; host or cells: E. coli BL21 (DE3) / BL21 codon plus (RIPL); purified bacterial membranes
Procedure: The standard 10 μL binding reaction contained 10 μp purified membranes (total protein) and 10 μM [^3H] progesterone or [^3H] cholesterol (3,000-5,000 cpm) in buffer A: 20% ethanol. Stock solutions (100 μM) of [^3H] cholesterol and [^3H] progesterone containing ˜4×10^4 cpm/μL, were prepared in 95% ethanol. Reactions were prepared in clear 2.0 mL microcentrifuge tubes on ice. To start the reaction, the microfuge tube was briefly mixed (vortex) and placed at 37° C. Following a 10 to 30 min incubation, the tubes were centrifuged in a microfuge (˜13,000 rpm) for 2 min. The supernatant was carefully removed and the pellet was washed with an additional 10 μL water. After a second round of centrifugation (2 min; 13,000 rpm), the resulting supernatant was combined with the first and the pellet was resuspended in 20 μL H2O, Scintillation fluid (700 μL Wallac Optiflour) was added to each fraction and the fractions were mixed extensively. The fractions were then counted in a multi-well scintillation counter (Wallac Microbeta Triluxmax, Waltham, Mass.) for 30 seconds each. Binding are reported as μ/moles of ligand bound per mg of membrane protein. His10-PGRMC1 (His10 disclosed as SEQ ID NO: 14)-specific binding is reported as the difference in binding between transformed and untransformed bacteria. Experimental deviations from the standard assay conditions are noted in individual figure legends.
To test whether progesterone and cholesterol compete for the same specific binding site, the direct binding of [^3H] progesterone or [^3H] cholesterol to His10-PGRMC1 (His10 disclosed as SEQ ID NO: 14) in the presence of various cold competitors was examined. In these experiments, the standard amount of [^3H] ligand was combined with a cold competitor at either 10 or 100-fold higher concentration and mixed well to ensure homogeneity. These stock ligand solutions were then used in the standard binding assay as described.
The ability of other putative ligands reported in the literature to compete with progesterone binding was examined. […] As a control, cold progesterone (P) was used as a competitor and it was observed that excess cold progesterone competes with [^3H] progesterone for His10-PGRMC1 (His10 disclosed as SEQ ID NO: 14) binding. Contrastingly, binding of [^3H] cholesterol to His10-PGRMC1 (His10 disclosed as SEQ ID NO: 14) was unaffected by the presence of progesterone, ergosterol, or heme at ten-fold higher concentrations (FIG. 9, cholesterol). It was not until competitor concentrations were 100-fold higher than ligand that a reduction of cholesterol binding was observed.

His10-PGRMC1 [2] = biological target: T1, His10-PGRMC1; assay: Coupled time-course proteolysis experiment (protease-sensitive vs protease-resistant specific binding); conditions: trypsin after ligand incubation, FIG. 10
Excerpt: (§1) Since data from the competition assays indicate that progesterone and cholesterol bind to the same site within His10-PGRMC1 (His10 disclosed as SEQ ID NO: 14), the reason for the observation of more cholesterol binding in our assays was examined. There appear to be two plausible explanations: one possibility is that there are more cholesterol-specific binding sites on His10-PGRMC1 (His10 disclosed as SEQ ID NO: 14) that comprise the increase in observed binding; the other is that His10-PGRMC1 (His10 disclosed as SEQ ID NO: 14) is catalyzing the incorporation of cholesterol into the membrane. To distinguish between these possibilities, a coupled time-course proteolysis experiment was performed. In these studies, [^3H] progesterone and [^3H] cholesterol were incubated with membranes ±His10-PGRMC1 (His10 disclosed as SEQ ID NO: 14) for increasing time periods. At the end of the incubation period, the membranes were isolated, washed, and resuspended in a trypsin solution to remove all His10-PGRMC1 (His10 disclosed as SEQ ID NO: 14) protein. In this manner any ligand specifically bound to His10-PGRMC1 (His10 disclosed as SEQ ID NO: 14) would be protease-sensitive and be removed from the membrane fraction. Any ligand incorporated into the membrane or other protected site will be protease-resistant and remain in the membrane fraction. After proteolysis the reactions were separated by centrifugation into protease-resistant (membrane) and protease-sensitive (supernatant) fractions and ligand amount determined. […] Total specific binding of progesterone (FIG. 10A, diamonds) increasing over time and occurring at levels consistent with previous studies was observed. […] It is important to note that this ligand incorporation reaction is specific to bound cholesterol as it was observed that all bound progesterone was protein associated. Collectively our findings describe an important and previously uncharacterized function for PGRMC1 and sterol binding proteins in general, that of catalyzing the incorporation of cholesterol into membranes.

His10-PGRMC1 [3] = assay: as above; parameters: species or system human; conditions: trypsin after ligand incubation, FIG. 10
Excerpt: as §1

[4] = Solubility of ligand in the binding assay; assay type: physicochemical; conditions: binding assay buffer; read-out: concentration above which only partially soluble in the assay
Procedure: Next, the question of whether binding of ligand to His10-PGRMC1 (His10 disclosed as SEQ ID NO: 14) is saturable was examined. […] Ligand binding time was held constant while increasing the ligand concentration by half logs in each experiment. The ligand concentration spanned four orders of magnitude from lowest to highest. […] Cholesterol was only partially soluble in our assay at concentrations greater than 3 mM so testing saturation at higher concentrations was unable to be performed.

T1 sequence (O00264 whole entry): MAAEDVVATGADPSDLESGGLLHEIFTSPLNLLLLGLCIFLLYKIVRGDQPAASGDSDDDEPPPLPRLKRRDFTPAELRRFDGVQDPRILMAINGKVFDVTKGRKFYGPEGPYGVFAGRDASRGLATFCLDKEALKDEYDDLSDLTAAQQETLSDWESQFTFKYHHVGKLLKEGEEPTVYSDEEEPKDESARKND

Structure (SMILES) | competitor excess over ligand at which a reduction of [^3H] cholesterol binding was observed (His10-PGRMC1 [1]) [fold] | effect of cold competitor on binding of [^3H] cholesterol (His10-PGRMC1 [1]) | effect of cold competitor on specific binding of [^3H] progesterone (His10-PGRMC1 [1]) | protease-sensitive (protein-associated) specific binding (His10-PGRMC1 [2]) | protease-resistant (membrane-associated) specific binding (His10-PGRMC1 [3]) | solubility [4] [µM]
CC(C)CCC[C@@H](C)[C@H]1CC[C@H]2[C@@H]3CC=C4C[C@@H](O)CC[C@]4(C)[C@H]3CC[C@]12C [Cholesterol, cholesterol] | 100 | did not begin to reduce | greatly reduced | decreased over time | increasingly protease-resistant | > 3000
CC(=O)[C@H]1CC[C@H]2[C@@H]3CCC4=CC(=O)CC[C@]4(C)[C@H]3CC[C@]12C [Progesterone, progesterone] | – | unaffected | competes | essentially all | virtually no | –
